# Assay results from patent publication US4133876A, “Antibiotic A-32887 and process for production thereof” (Eli Lilly and Company, priority 1977, dated 1979).
# Columns and labels:
# [1] = test system: Pasteurella multocida (bovine); experiment: Standard agar-dilution assay, MIC (Table VI); format: cell-based
# Source text: (§1) Antibiotic A-32887 inhibits the growth of pathogenic bacteria, especially gram-positive bacteria. Table VI summarizes the minimal inhibitory concentrations (MIC), as measured by standard agar-dilution assays, at which A-32887 (Na-K salt) inhibits certain bacteria.
# [2] = test system: Staphylococcus aureus 3055; experiment: Standard agar-dilution assay, MIC (Table VI); format: cell-based
# Source text: as §1
# Staphylococcus sp. = experiment: Standard agar-dilution assay, MIC (Table VI); format: cell-based
# Source text: as §1
# Streptococcus faecalis = experiment: Standard agar-dilution assay, MIC (Table VI); format: cell-based
# Source text: as §1
# Streptococcus sp. = experiment: Standard agar-dilution assay, MIC (Table VI); format: cell-based
# Source text: as §1
# Mycoplasma gallisepticum = experiment: In vitro broth-dilution studies, mycoplasma (Table X); format: cell-based
# Source text: (§2) Activity against mycoplasma is another useful aspect of the antimicrobial activity of the A-32887 compounds. Mycoplasma species, also known as pleuropneumonia-like (PPLO) organisms, are pathogenic to man and various animals. Anti-mycoplasma agents are especially needed by the poultry industry. The MIC's of A-32887 (Na-K salt) against typical mycoplasma species, as determined by in vitro broth-dilution studies, are summarized in Table X: […]
# Mycoplasma hyopneumoniae = experiment: as above; format: cell-based
# Source text: as §2
# Mycoplasma hyorhinis = experiment: as above; format: cell-based
# Source text: as §2
# Mycoplasma synoviae = experiment: as above; format: cell-based
# Source text: as §2
# [3] = Acute toxicity, intraperitoneal, mice; format: in vivo; conditions: intraperitoneally
# E. tenella and E. maxima = experiment: Anticoccidial activity in chicks (Table XI); format: in vivo; design: Average Lesion Score, Total Intestinal / Average Lesion Score, Cecal: scale not given here; conditions: for Mortality: due to coccidiosis; for Feed/Gain: pens without deaths only; for Average Weight Gain: per survivor
# Method: ^1 70,000 oocysts/bird of each of E. tenella and E. maxima
# ^2 Infected 48 hours postmedication; terminated seven days
# ^3 Four replicates; five birds/replicate
# ^6 Pens without deaths only
# [4] = test system: E. tenella and E. acervulina; experiment: Anticoccidial activity in chicks (Table XII); format: in vivo; design: Average Lesion Score, Intestinal / Average Lesion Score, Cecal: scale not given here; conditions: for Oocysts Per Bird: days 7-9; for Percent Mortality: due to coccidiosis; for Percent Weight Gain: normal controls = 100%
# Method: ^1 6 replicates; 5 birds each
# ^2 Infection inoculum 48 hours post-medication onset
# ^4 Normal controls = 100%
# [5] = test system: E. tenella, E. maxima and E. acervulina; experiment: Anticoccidial activity in chicks (Table XIII); format: in vivo; design: Average Lesion Score, Intestinal / Average Lesion Score, Cecal: scale not given here; conditions: for Percent Mortality: due to coccidiosis; for Percent Weight Gain: per survivor; for Oocysts/Bird: total days 5, 6 and 7 post-inoculation; for Feed/Gain: pens without deaths only
# Source text: ^2 Six replicates; 5 birds/each
# ^5 Pens without deaths, only
# ^6 Total days 5, 6 and 7 post-inoculation
# coccidia = experiment: Feeding experiments in young chickens challenged with coccidia; format: in vivo, Eimeria species; conditions: feed levels as low as 40 ppm
# rumen flora = experiment: Volatile-fatty-acid (VFA) production in treated vs control flasks (Table XIV)
# [6] = Ruminal VFA in fistulated feed-lot cattle (Table XV); format: in vivo; conditions: 30 g/ton, 24-day treatment
# Source text: The procedure used in testing cattle in this manner is also described in Raun's U.S. Pat. No. 3,839,557 (see Example 9). Table XV summarizes the results of such a test with A-32887 (Na-K salt) wherein five feed-lot cattle weighing approximately 425 kg. were in each group and the mean percent increases in ruminal propionate concentration were averaged over four analyses in a 24-day treatment period.
# [7] = Ruminal propionate in sheep (Table XVI); format: in vivo; conditions: 15 g/ton, 19-day treatment, control 26.5
# Source text: Table XVI summarizes the results of a similar test in sheep with A-32887 (Na-K salt) wherein four sheep were in each group and the mean percent increases in ruminal propionate concentration were averaged over four analyses in a 19-day treatment period.
# acute swine dysentery = experiment: Swine dysentery test in pigs (Table XVII); format: in vivo
# Method: In another aspect the A-32887 compounds are useful in the prevention and control of swine dysentery. A preferred method of administration to swine is by incorporation of an appropriate amount of an A-32887 compound into the feed ration. […] In this test, groups of four pigs were challenged orally with 5.0 ml of a colon-content/tissue suspension prepared from pigs suffering from acute swine dysentery. Treated pigs were challenged 24 hours after initiating feed treatment. The test was carried out over a period of 26 days, observing pigs daily, and weighing them weekly and on day 26.
# *Fecal material for each group was rated daily with 0=normal, 1=slight
# blood or mucus, 2=moderate blood or mucus, 3=marked blood or mucus. Index
# is the total score per treatment for 25 days.
# powdery mildew = experiment: Powdery mildew disease in bean plants, spray; format: in vivo; conditions: 400 ppm spray
# Source text: The A-32887 compounds are also useful in the treatment of certain plant diseases.
# ATPase = ATPase inhibition in vitro using NaCl; format: biochemical
# Source text: In yet another aspect, the A-32887 compounds are active as inhibitors of the enzyme ATPase. ATPase, an alkali-metal-sensitive enzyme found in cell membranes, is involved in the energy necessary for active transport. "Active transport" refers to the energy-requiring series of operations whereby intracellular and extracellular fluids maintain their compositions. Inhibitors of ATPase reduce the energy required for active transport.
# guinea pig left atria = experiment: Cardiac contractility of guinea pig left atria; conditions: 10^-5 molar; percentage of maximal force elicited by a challenge dose of norepinephrine
# Source text: The A-32887 compounds are potential cardiotonic agents. In tests using guinea pig left atria, A-32887 (Na-K salt) increased cardiac contractility. Response to this test is expressed as a percentage of the maximal force that could be elicited by a challenge dose of norepinephrine. A-32887 (Na-K salt), at a 10^-5 molar concentration, increased cardiac contractility by 28.0 ± 7.1 percent.
# [8] = test system: Bacillus subtilis ATCC 6633; experiment: Paper-disc agar-diffusion assay system (Plate Assay, Table VIII); format: cell-based; conditions: samples at 1 mg/ml, as Na-K salts; dried-broth reference standard = 100 units/ml
# Method: (§3) The antimicrobial activity of two typical A-32887 acyl ester derivatives is compared with that of A-32887 (each as Na-K salts) in Table VIII. Activity against illustrative bacteria is measured by the conventional disc-diffusion method. In addition, the results of a conventional paper-disc agar-diffusion assay system (Plate Assay) against Bacillus subtilis ATCC 6633 are reported. The activity in this test is quantitated and uses a dried-broth reference standard which is assigned an arbitrary potency of 100 units/ml. The samples were assayed at 1 mg/ml.
# Bacillus subtilis = experiment: Conventional disc-diffusion method (Table VIII); format: cell-based; conditions: as Na-K salts, samples at 1 mg/ml
# Method: as §3
# Micrococcus lutea = experiment: Conventional disc-diffusion method (Table VIII); format: cell-based; conditions: as Na-K salts; samples at 1 mg/ml
# Method: as §3
# Staphylococcus aureus = experiment: Conventional disc-diffusion method (Table VIII); format: cell-based; conditions: as Na-K salts; samples at 1 mg/ml
# Method: as §3
# [9] = format: physicochemical; conditions: 80% aqueous dimethylformamide
# Source text: Electrometric titration of A-32887 methyl ether derivative (Na salt) in 80% aqueous dimethylformamide indicates the presence of a titratable group with a pKa value of about 5.4.
structure (smiles),measurement,setting,value
CO[C@H]1CC[C@H](OC2[C@@H](C)[C@@](C)(O)O[C@H]([C@H]3CC[C@H]([C@@H]4CC[C@H]([C@@]5(C)O[C@]6(O[C@H](C[C@@H]7O[C@](O)([C@@H](O)C(=O)O)[C@@H](C)[C@H](OC)[C@@]7(C)OC)C[C@@H](OC)[C@H]6C)[C@H](C)[C@H]5OC)O4)O3)[C@H]2C)O[C@@H]1C.[K+].[Na+] (stereo partly shown) [A-32887 (Na-K salt)],MIC,[1],50.00 µg/mL
same,MIC,[2],6.25 µg/mL
same,MIC,Staphylococcus sp.,1.56 µg/mL
same,MIC,Streptococcus faecalis,6.25 µg/mL
same,MIC,Streptococcus sp.,3.12 µg/mL
same,MIC,Mycoplasma gallisepticum,12.5 µg/mL
same,MIC,Mycoplasma hyopneumoniae,6.25 µg/mL
same,MIC,Mycoplasma hyorhinis,25.0 µg/mL
same,MIC,Mycoplasma synoviae,3.12 µg/mL
same,LD50,[3],37.5 mg/kg × 1
same,"Average Lesion Score, Cecal",E. tenella and E. maxima; 40 ppm,1.6
same,"Average Lesion Score, Total Intestinal",E. tenella and E. maxima; 40 ppm,4.9
same,Mortality,E. tenella and E. maxima; 40 ppm in feed,0
same,Feed/Gain,E. tenella and E. maxima; 40 ppm,1.89
same,Average Weight Gain,E. tenella and E. maxima; 40 ppm,176 g
same,"Average Lesion Score, Cecal",E. tenella and E. maxima; 60 ppm,0.6
same,"Average Lesion Score, Total Intestinal",E. tenella and E. maxima; 60 ppm,5.9
same,Mortality,E. tenella and E. maxima; 60 ppm in feed,0
same,Feed/Gain,E. tenella and E. maxima; 60 ppm,1.83
same,Average Weight Gain,E. tenella and E. maxima; 60 ppm,155 g
same,"Average Lesion Score, Cecal",E. tenella and E. maxima; 80 ppm,0.3
same,"Average Lesion Score, Total Intestinal",E. tenella and E. maxima; 80 ppm,3.0
same,Mortality,E. tenella and E. maxima; 80 ppm in feed,0
same,Feed/Gain,E. tenella and E. maxima; 80 ppm,1.83
same,Average Weight Gain,E. tenella and E. maxima; 80 ppm,182 g
same,"Average Lesion Score, Cecal",E. tenella and E. maxima; 100 ppm,0
same,"Average Lesion Score, Total Intestinal",E. tenella and E. maxima; 100 ppm,1.6
same,Mortality,E. tenella and E. maxima; 100 ppm in feed,0
same,Feed/Gain,E. tenella and E. maxima; 100 ppm,1.87
same,Average Weight Gain,E. tenella and E. maxima; 100 ppm,159 g
same,"Average Lesion Score, Cecal",[4]; 62 ppm,0.1
same,"Average Lesion Score, Intestinal",[4]; 62 ppm,0.9
same,Oocysts Per Bird,[4]; 62 ppm,16.40 1×10^6
same,Percent Mortality,[4]; 62 ppm,0%
same,Percent Weight Gain,[4]; 62 ppm,97%
same,"Average Lesion Score, Cecal",[4]; 77 ppm,0
same,"Average Lesion Score, Intestinal",[4]; 77 ppm,0.7
same,Oocysts Per Bird,[4]; 77 ppm,5.48 1×10^6
same,Percent Mortality,[4]; 77 ppm,0%
same,Percent Weight Gain,[4]; 77 ppm,90%
same,"Average Lesion Score, Cecal",[4]; 100 ppm,0.1
same,"Average Lesion Score, Intestinal",[4]; 100 ppm,0.6
same,Oocysts Per Bird,[4]; 100 ppm,1.28 1×10^6
same,Percent Mortality,[4]; 100 ppm,0%
same,Percent Weight Gain,[4]; 100 ppm,85%
same,"Average Lesion Score, Cecal",[4]; 121 ppm,0
same,"Average Lesion Score, Intestinal",[4]; 121 ppm,0.3
same,Oocysts Per Bird,[4]; 121 ppm,0.4 1×10^6
same,Percent Mortality,[4]; 121 ppm,0%
same,Percent Weight Gain,[4]; 121 ppm,73%
same,"Average Lesion Score, Cecal",[5]; 25 ppm,3.9
same,"Average Lesion Score, Intestinal",[5]; 25 ppm,1.1
same,Percent Mortality,[5]; 25 ppm,35%
same,Percent Weight Gain,[5]; 25 ppm,57%
same,Oocysts/Bird,[5]; 25 ppm,64.83 1×10^6
same,"Average Lesion Score, Cecal",[5]; 50 ppm,3.8
same,"Average Lesion Score, Intestinal",[5]; 50 ppm,1.8
same,Percent Mortality,[5]; 50 ppm,0%
same,Feed/Gain,[5]; 50 ppm,1.67
same,Percent Weight Gain,[5]; 50 ppm,79%
same,Oocysts/Bird,[5]; 50 ppm,35.78 1×10^6
same,"Average Lesion Score, Cecal",[5]; 75 ppm,2.0
same,"Average Lesion Score, Intestinal",[5]; 75 ppm,0.9
same,Percent Mortality,[5]; 75 ppm,0%
same,Feed/Gain,[5]; 75 ppm,1.49
same,Percent Weight Gain,[5]; 75 ppm,90%
same,Oocysts/Bird,[5]; 75 ppm,24.35 1×10^6
same,"Average Lesion Score, Cecal",[5]; 100 ppm,0.1
same,"Average Lesion Score, Intestinal",[5]; 100 ppm,0
same,Percent Mortality,[5]; 100 ppm,0%
same,Feed/Gain,[5]; 100 ppm,1.50
same,Percent Weight Gain,[5]; 100 ppm,93%
same,Oocysts/Bird,[5]; 100 ppm,6.49 1×10^6
same,Mortality,coccidia,decreases
same,number of lesions,coccidia,decreases
same,"Ratio of Treated to Control, Total VFA mM/1.",rumen flora; 1 mcg/ml,0.7498
same,"Ratio of Treated to Control, Molar % Acetate",rumen flora; 10 mcg/ml,0.8857
same,"Ratio of Treated to Control, Molar % Butyrate",rumen flora; 10 mcg/ml,0.7012
same,"Ratio of Treated to Control, Total VFA mM/1.",rumen flora; 10 mcg/ml,1.0086
same,"Ratio of Treated to Control, Molar % Propionate","rumen flora; 10 mcg/ml, * P<0.01",1.2919
same,Molar % Butyrate,[6]; control 8.1,9.6 Molar %
same,Molar % Propionate,"[6]; control 17.4, * P<0.01",27.1 Molar %
same,Molar % Acetate,"[6]; control 74.5, * P<0.01",63.3 Molar %
same,Total VFA,[6]; control 79.9,79.6 mM/1.
same,Molar % Propionate,[7],29.5 Molar %
same,Final-Average Wt. per Pig,"acute swine dysentery; 100 g/ton in feed, 26 days",30.3 lbs
same,No. Died per No. in Group,"acute swine dysentery; 100 g/ton in feed, 26 days",0/4
same,No. with Colon Lesions/No. in Group,"acute swine dysentery; 100 g/ton in feed, 26 days",2/4
same,Diarrhea Index,"acute swine dysentery; 100 g/ton, total score per treatment for 25 days (0=normal to 3=marked blood or mucus)",22
same,inhibition of powdery mildew disease,powdery mildew,inhibits powdery mildew disease
same,ATPase inhibition,ATPase,inhibit ATPase
same,increase in cardiac contractility,guinea pig left atria,28.0 ± 7.1%
CO[C@H]1CC[C@H](OC2[C@@H](C)[C@@](C)(O)O[C@H]([C@H]3CC[C@H]([C@@H]4CC[C@H]([C@@]5(C)O[C@]6(O[C@H](C[C@@H]7O[C@](O)([C@@H](O)C(=O)O)[C@@H](C)[C@H](OC)[C@@]7(C)OC)C[C@@H](OC)[C@H]6C)[C@H](C)[C@H]5OC)O4)O3)[C@H]2C)O[C@@H]1C.[K+].[Na+] (stereo partly shown) [A-32887],Plate Assay,[8],1350 units/ml
same,"Activity by disc-diffusion, Bacillus subtilis*",Bacillus subtilis; Minimal media,30
same,"Activity by disc-diffusion, Bacillus subtilis",Bacillus subtilis,18
same,"Activity by disc-diffusion, Micrococcus lutea",Micrococcus lutea,16
same,"Activity by disc-diffusion, Staphylococcus aureus",Staphylococcus aureus,16
same,ion-binding and ion-transport properties,Ionophore properties,exhibits ion-binding and iontransport properties
same,cation permeability of membranes,Ionophore properties; natural and artificial membranes,alters the cation permeability
same,pKa,[9],4.60
